Data on two compounds can be found in US20260219274A1, “POLYOL SWEETNERS AND CARDIOVASCULAR AND THROMBOTIC EVENT RISK” (THE CLEVELAND CLINIC FOUNDATION, priority 2023, published 2026).

One experiment concerns washed human platelets. Put plainly: Intracellular calcium measurements in Fura 2-filled washed platelets. The class given is cell-based. The following applies: for thrombin-evoked intracellular Ca2+ release: submaximal (0.02 U) thrombin, pre-incubation with the polyol. The protocol:
Measurement of intracellular calcium release in washed platelets was performed as previously described.^41 Further details are provided in supplemental methods.
To isolate washed platelets for intracellular Ca^2+ measurements, PRP was prepared as described above. Next, 100 nM prostaglandin E1 (PGE-1, Catalogue #P5512, Sigma, St. Louis, MO, USA) was added to the PRP and centrifuged at 500×g for 20 min at 22° C. as previously described.^6 After a gentle wash in a modified phosphate buffer saline (NaCl (137 mM), KCl (2.7 mM), Na2HPO4 (12 mM), MgCl2 (1 mM), and glucose (5.5 mM), pH 7.4) with PGE-1 (100 nM), the platelet pellet was spun again at 500×g for 20 min. The platelet pellet was re-suspended in modified Hank's buffered salt solution (HBSS-BSA-glucose; NaCl (0.137 M), KCl (5.4 mM), Na2HPO4 (0.25 mM KH2PO4 (0.44 mM), CaCl2 (1.3 mM), MgSO4 (1.0 mM), NaHCO3 (4.2 mM), glucose (5 mM) and BSA (0.1%)) with 100 nM PGE-1 and incubated with Fura 2-AM ([…]) at 22° C. After 30 min of incubation, an additional centrifugation at 500×g for 30 min was performed to remove excess Fura 2-AM. After resuspension in modified Hank's buffered salt solution the platelet pellet was incubated with xylitol at the indicated concentrations or vehicle for 30 min at 22° C. Intracellular Ca^2+ release was initiated by submaximal concentration of thrombin (0.02 U/mL) and changes in intracellular Ca^2+ monitored via Fura 2-AM fluorescence using 340/380 nm dual-wavelength excitation and an emission of 510 nm.
Washed platelets for intracellular Ca^2+ measurements were prepared by adding 100 nM prostaglandin E1 (PGE-1, Catalogue #P5512, Sigma, St. Louis, MO, USA) to PRP and centrifugation at 500×g, 20 min at 22° C. as previously described^26,51. […] Intra-cellular calcium release was induced by submaximal concentration of thrombin (0.02 U/mL) and changes monitored via Fura 2-AM fluorescence using 340/380 nm dual-wavelength excitation and an emission of 510 nm.

In a further experiment the test system is C57BL/6J mice. Put plainly: Carotid artery FeCl3 injury thrombosis model. The class given is in vivo. The following applies: for rate of clot / thrombus formation / time to cessation of blood flow following arterial injury: 25 mg/kg i.p. vs vehicle (saline). The protocol:
Mice were used to causally test whether elevation in xylitol plasma levels results in enhancement in thrombosis potential. All mice were C57BL/6J and 12-14 weeks of age. All animal studies were approved by the Institutional Animal Care and Use Committee at the Cleveland Clinic (IRB 2019-2251).
The FeCl3-induced carotid artery injury model was performed using intravital fluorescence microscopy with continuous image capture monitoring, as previously described.^44 Time to cessation of blood flow through thrombus formation for all experiments was determined by visual inspection by two independent investigators.
The FeCl3-induced carotid artery injury model was performed as previously described.^9 BL/6J mice, both male and female, 12-14 weeks of age, were i.p. injected with vehicle (saline) or xylitol (25 mg/kg). The animals were anesthetized with 100 mg/kg ketamine+10 mg/kg xylazine and rhodamine 6G (100 μL; 0.5 mg/mL, catalogue #252433, Sigma, St. Louis, MO, USA) was injected into the right jugular vein for platelet labeling. The left carotid artery was then exposed, and an injury induced using a 1 mm^2 Whatman filter paper containing 10% FeCl3 (Catalogue #157740, Sigma, St. Louis, MO, USA) for 1 min. Thrombus formation in real time was monitored using intravital fluorescence microscopy equipped with video recording. Time to cessation of blood flow through thrombus formation for all experiments was determined by visual inspection by two independent investigators and animals were immediately euthanized after data acquisition.
The common carotid artery FeCl3 induced injury model was performed as previously described^54. 12-14 weeks old BL/6J mice were injected with vehicle (normal saline), erythritol (25 mg/kg) or 1,5-AHG (25 mg/kg) and anesthetized with 100 mg/kg ketamine+10 mg/kg xylazine. Rhodamine 6G (100 μL; 0.5 mg/mL, catalogue #252433, Sigma, St. Louis, MO, USA) was injected into the right jugular vein to label platelets. The left carotid artery was then injured with a Whatman filter paper of 1 mm^2 size containing 10% FeCl3 (Catalogue #157740, Sigma, St. Louis, MO, USA) for 1 min. Intravital fluorescence microscopy equipped with video recording was used to monitor thrombus formation in real time. Time to cessation of blood flow through clot formation for all studies was determined by visual inspection of captured video by two independent investigators in real time. Data for the in vivo thrombosis were collected by Streampix 7—Multiple Camera DVR Software (NorPix Inc, Montreal, Canada). Animals were immediately euthanized after data acquisition.

On to `OC[C@@H](O)[C@@H](O)CO` [erythritol], for which, in the experiment with washed human platelets, the “thrombin-evoked intracellular Ca2+ release” value is listed as “enhanced”. Also, in the experiment on washed human platelets (threshold, FIG. 17), the “erythritol concentration eliciting significant increase in stimulus-dependent (thrombin) intracellular calcium” value was found to be 45 µM. In the experiment on C57BL/6J mice, the “rate of clot / thrombus formation” value was “marked enhancement” and the “time to cessation of blood flow following arterial injury” value is given as “significant reduction”.

On to `OC[C@@H](O)[C@H](O)[C@@H](O)CO` [xylitol], for which the “thrombin-evoked intracellular Ca2+ release” value with washed human platelets is “dose-dependently enhanced”. Further, in the experiment with C57BL/6J mice, the “rate of clot / thrombus formation” value was “marked increase” and the “time to cessation of blood flow following arterial injury” value is recorded as “significant reduction”. In addition, the “plasma xylitol level at which heightened thrombosis potential was observed” value with C57BL/6J mice (animal model of thrombosis (FIG. 4B)) was 19 µM.
